# From PubChem BioAssay (NCI)
#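 96-well plates; 48 h exposure; 5 concentrations. Endpoints by linear interpolation between flanking doses. Not reached: highest tested concentration assigned. The concentration for 50% growth inhibition is given as GI50. TGI marks complete inhibition of growth.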
# Tests used:
# Test in all cases: inhibition of tumour cell growth, NCI panel, 48 h
# 786-0 renal = tested on: 786-0 renal
# A498 renal = tested on: A498 renal
# ACHN renal = tested on: ACHN renal
# BT-549 breast = tested on: BT-549 breast
# CAKI-1 renal = tested on: CAKI-1 renal
# COLO 205 colon = tested on: COLO 205 colon
# DU-145 prostate = tested on: DU-145 prostate
# HCC-2998 colon = tested on: HCC-2998 colon
# HCT-116 colon = tested on: HCT-116 colon
# HCT-15 colon = tested on: HCT-15 colon
# HL-60(TB) leukemia = tested on: HL-60(TB) leukemia
# HOP-62 NSCLC = tested on: HOP-62 NSCLC
# HOP-92 NSCLC = tested on: HOP-92 NSCLC
# HS 578T breast = tested on: HS 578T breast
# KM12 colon = tested on: KM12 colon
# LOX IMVI melanoma = tested on: LOX IMVI melanoma
# MOLT-4 leukemia = tested on: MOLT-4 leukemia
# NCI-H226 lung = tested on: NCI-H226 lung
# NCI-H23 lung = tested on: NCI-H23 lung
# NCI/ADR-RES ovarian = tested on: NCI/ADR-RES ovarian
# OVCAR-3 ovarian = tested on: OVCAR-3 ovarian
# OVCAR-4 ovarian = tested on: OVCAR-4 ovarian
# OVCAR-5 ovarian = tested on: OVCAR-5 ovarian
# PC-3 prostate = tested on: PC-3 prostate
# RPMI-8226 leukemia = tested on: RPMI-8226 leukemia
# RXF 393 renal = tested on: RXF 393 renal
# SF-295 CNS = tested on: SF-295 CNS
# SF-539 CNS = tested on: SF-539 CNS
# SK-MEL-28 melanoma = tested on: SK-MEL-28 melanoma
# SK-MEL-5 melanoma = tested on: SK-MEL-5 melanoma
# SK-OV-3 ovarian = tested on: SK-OV-3 ovarian
# SNB-75 CNS = tested on: SNB-75 CNS
# SW-620 colon = tested on: SW-620 colon
# T-47D breast = tested on: T-47D breast
# TK-10 renal = tested on: TK-10 renal
# UACC-257 melanoma = tested on: UACC-257 melanoma
# UACC-62 melanoma = tested on: UACC-62 melanoma
# UO-31 renal = tested on: UO-31 renal
# A549 NSCLC = tested on: A549 NSCLC
# CCRF-CEM leukemia = tested on: CCRF-CEM leukemia
# EKVX NSCLC = tested on: EKVX NSCLC
# HT29 colon = tested on: HT29 colon
# IGROV1 ovarian = tested on: IGROV1 ovarian
# K-562 leukemia = tested on: K-562 leukemia
# M14 melanoma = tested on: M14 melanoma
# MCF7 breast = tested on: MCF7 breast
# NCI-H460 lung = tested on: NCI-H460 lung
# OVCAR-8 ovarian = tested on: OVCAR-8 ovarian
# SF-268 CNS = tested on: SF-268 CNS
# SN12C renal = tested on: SN12C renal
# SNB-19 CNS = tested on: SNB-19 CNS
# SR leukemia = tested on: SR leukemia
# U251 CNS = tested on: U251 CNS
compound,measurement,setting,value
Cc1cc2cn3c4cccnc4[nH]c(=O)c3c2cc1C,GI50,786-0 renal,1.87 µM
same,TGI,786-0 renal,3.33 µM
same,GI50,A498 renal,3.8 µM
same,TGI,A498 renal,18.5 µM
same,GI50,ACHN renal,1.73 µM
same,TGI,ACHN renal,3.1 µM
same,GI50,BT-549 breast,12.2 µM
same,TGI,BT-549 breast,29.4 µM
same,GI50,CAKI-1 renal,1.42 µM
same,TGI,CAKI-1 renal,2.92 µM
same,GI50,COLO 205 colon,1.65 µM
same,TGI,COLO 205 colon,3.18 µM
same,GI50,DU-145 prostate,1.83 µM
same,TGI,DU-145 prostate,3.28 µM
same,GI50,HCC-2998 colon,1.5 µM
same,TGI,HCC-2998 colon,2.92 µM
same,GI50,HCT-116 colon,1.45 µM
same,TGI,HCT-116 colon,2.76 µM
same,GI50,HCT-15 colon,1.41 µM
same,TGI,HCT-15 colon,2.87 µM
same,GI50,HL-60(TB) leukemia,2.08 µM
same,TGI,HL-60(TB) leukemia,4.16 µM
same,GI50,HOP-62 NSCLC,1.5 µM
same,TGI,HOP-62 NSCLC,2.85 µM
same,GI50,HOP-92 NSCLC,1.24 µM
same,TGI,HOP-92 NSCLC,2.65 µM
same,GI50,HS 578T breast,1.85 µM
same,TGI,HS 578T breast,4.38 µM
same,GI50,KM12 colon,1.15 µM
same,TGI,KM12 colon,2.56 µM
same,GI50,LOX IMVI melanoma,1.47 µM
same,TGI,LOX IMVI melanoma,2.99 µM
same,GI50,MOLT-4 leukemia,2.25 µM
same,TGI,MOLT-4 leukemia,4.53 µM
same,GI50,NCI-H226 lung,11.2 µM
same,TGI,NCI-H226 lung,28 µM
same,GI50,NCI-H23 lung,1.37 µM
same,TGI,NCI-H23 lung,2.74 µM
same,GI50,NCI/ADR-RES ovarian,1.39 µM
same,TGI,NCI/ADR-RES ovarian,2.96 µM
same,GI50,OVCAR-3 ovarian,1.77 µM
same,TGI,OVCAR-3 ovarian,3.22 µM
same,GI50,OVCAR-4 ovarian,1.6 µM
same,TGI,OVCAR-4 ovarian,3.19 µM
same,GI50,OVCAR-5 ovarian,1.66 µM
same,TGI,OVCAR-5 ovarian,3.02 µM
same,GI50,PC-3 prostate,1.42 µM
same,TGI,PC-3 prostate,2.89 µM
same,GI50,RPMI-8226 leukemia,1.89 µM
same,TGI,RPMI-8226 leukemia,4.66 µM
same,GI50,RXF 393 renal,1.46 µM
same,TGI,RXF 393 renal,2.88 µM
same,GI50,SF-295 CNS,1.51 µM
same,TGI,SF-295 CNS,3.26 µM
same,GI50,SF-539 CNS,1.73 µM
same,TGI,SF-539 CNS,3.12 µM
same,GI50,SK-MEL-28 melanoma,1.53 µM
same,TGI,SK-MEL-28 melanoma,2.95 µM
same,GI50,SK-MEL-5 melanoma,1.13 µM
same,TGI,SK-MEL-5 melanoma,2.34 µM
same,GI50,SK-OV-3 ovarian,1.8 µM
same,TGI,SK-OV-3 ovarian,3.2 µM
same,GI50,SNB-75 CNS,1.43 µM
same,TGI,SNB-75 CNS,3.08 µM
same,GI50,SW-620 colon,1.09 µM
same,TGI,SW-620 colon,2.47 µM
same,GI50,T-47D breast,1.84 µM
same,TGI,T-47D breast,4 µM
same,GI50,TK-10 renal,2.27 µM
same,TGI,TK-10 renal,3.91 µM
same,GI50,UACC-257 melanoma,1.67 µM
same,TGI,UACC-257 melanoma,3.41 µM
same,GI50,UACC-62 melanoma,1.38 µM
same,TGI,UACC-62 melanoma,2.78 µM
same,GI50,UO-31 renal,1.5 µM
same,TGI,UO-31 renal,2.97 µM
O=C1CCCC2=C1CC1=C(CCCC1=O)N2c1ccccc1,TGI,786-0 renal,> 100 µM
same,TGI,A498 renal,> 100 µM
same,TGI,A549 NSCLC,> 100 µM
same,TGI,ACHN renal,> 100 µM
same,TGI,BT-549 breast,> 100 µM
same,TGI,CAKI-1 renal,> 100 µM
same,TGI,CCRF-CEM leukemia,> 100 µM
same,TGI,EKVX NSCLC,> 100 µM
same,TGI,HCC-2998 colon,> 100 µM
same,TGI,HCT-15 colon,> 100 µM
same,TGI,HL-60(TB) leukemia,> 100 µM
same,TGI,HOP-92 NSCLC,> 100 µM
same,TGI,HS 578T breast,> 100 µM
same,TGI,HT29 colon,> 100 µM
same,TGI,IGROV1 ovarian,> 100 µM
same,TGI,K-562 leukemia,> 100 µM
same,TGI,KM12 colon,> 100 µM
same,TGI,LOX IMVI melanoma,> 100 µM
same,TGI,M14 melanoma,> 100 µM
same,TGI,MCF7 breast,> 100 µM
same,TGI,MOLT-4 leukemia,> 100 µM
same,TGI,NCI-H226 lung,> 100 µM
same,TGI,NCI-H23 lung,> 100 µM
same,TGI,NCI-H460 lung,> 100 µM
same,TGI,NCI/ADR-RES ovarian,> 100 µM
same,TGI,OVCAR-3 ovarian,> 100 µM
same,TGI,OVCAR-4 ovarian,> 100 µM
same,TGI,OVCAR-5 ovarian,> 100 µM
same,TGI,OVCAR-8 ovarian,> 100 µM
same,TGI,PC-3 prostate,> 100 µM
same,TGI,RPMI-8226 leukemia,> 100 µM
same,TGI,RXF 393 renal,> 100 µM
same,TGI,SF-268 CNS,> 100 µM
same,TGI,SF-539 CNS,> 100 µM
same,TGI,SK-MEL-28 melanoma,> 100 µM
same,TGI,SK-MEL-5 melanoma,> 100 µM
same,TGI,SK-OV-3 ovarian,> 100 µM
same,TGI,SN12C renal,> 100 µM
same,TGI,SNB-19 CNS,> 100 µM
same,TGI,SNB-75 CNS,> 100 µM
same,TGI,SR leukemia,> 100 µM
same,TGI,SW-620 colon,> 100 µM
same,TGI,TK-10 renal,> 100 µM
same,TGI,U251 CNS,> 100 µM
same,TGI,UACC-62 melanoma,> 100 µM
same,TGI,UO-31 renal,> 100 µM
